Assay results reported in PMC9137512 (Antibiotics, 2022).

Key:
[1] = Free concentration and protein binding in spiked human serum samples (Table S5); conditions: for fraction unbound: human, serum, PB
Protocol: Subsequently, samples were mixed for 10 s, stored in an ultrasonic bath for 10 min at 40 °C, then centrifuged at 8000× g for 5 min. Next, 100 µL of the resulting supernatant was further diluted with 500 µL water with 0.1% formic acid. […] Details are described in the Supplementary Materials (Figures S1–S3).
Table S5. […] In order to evaluate the
(a) Spiked human serum samples of 14 patients (8 critically ill and 6 non-critically ill) after calibration with sheep serum.
(b) Spiked human serum samples of 9 critically ill patients and 6 healthy volunteers after calibration with human serum.

[2] = Stability of aqueous stock solution; type: physicochemical; conditions: HPLC-UV
From the text: (§1) For stability testing, two samples were thawed out and subsequently analyzed. Stability was defined by the time for which samples remained a concentration of > 90% of their baseline concentrations.

[3] = cited from earlier work
From the text: Efficacy is associated with the area under the concentration-time curve (AUC) divided by the minimal inhibitory concentration (MIC). […] Standard in vitro me ...

[4] = Stability of dalbavancin in human serum; conditions: serum samples, HPLC-UV
From the text: as §1

[5] = S5b, serum of patient 16 (critically ill) spiked 50 mg/L, measured c 56.7 mg/L, calibration with human serum
[6] = S5b, serum of patient 17 (critically ill) spiked 200 mg/L, measured c 222 mg/L, calibration with human serum
[7] = S5b, serum of patient 18 (critically ill) spiked 50 mg/L, measured c 57.6 mg/L, calibration with human serum
[8] = S5b, serum of patient 18 (critically ill) spiked 200 mg/L, measured c 242 mg/L, calibration with human serum
[9] = S5b, serum of patient 19 (critically ill) spiked 50 mg/L, measured c 51.1 mg/L, calibration with human serum
[10] = S5b, serum of patient 19 (critically ill) spiked 200 mg/L, measured c 197 mg/L, calibration with human serum
[11] = S5b, serum of patient 20 (critically ill) spiked 50 mg/L, measured c 54.5 mg/L, calibration with human serum
[12] = S5b, serum of patient 20 (critically ill) spiked 200 mg/L, measured c 254 mg/L, calibration with human serum
[13] = S5b, serum of patient 21 (critically ill) spiked 50 mg/L, measured c 55.2 mg/L, calibration with human serum
[14] = S5b, serum of patient 23 (critically ill) spiked 50 mg/L, measured c 56.0 mg/L, calibration with human serum

Work on `CN[C@H]1C(=O)N[C@@H]2Cc3ccc(cc3)Oc3cc4cc(c3O[C@@H]3O[C@H](C(=O)O)[C@@H](O)[C@H](O)[C@H]3NC(=O)CCCCCCCCC(C)C)Oc3ccc(cc3Cl)[C@@H](O)[C@@H]3NC(=O)[C@H](NC(=O)[C@@H]4NC(=O)[C@@H](NC2=O)c2cc(cc(O)c2Cl)Oc2cc1ccc2O)c1ccc(O)c(c1)-c1c(O[C@H]2O[C@H](CO)[C@@H](O)[C@H](O)[C@@H]2O)cc(O)cc1[C@@H](C(=O)NCCCN(C)C)NC3=O` [dalbavancin, Dalbavancin] yielded a fc ([1]; S5b, serum of 29 (healthy volunteer) spiked 200 mg/L, measured c 207 mg/L, calibration with human serum) of 4.6 mg/L, a fc ([1]; S5b, serum of patient 15 (critically ill) spiked 50 mg/L, measured c 56.7 mg/L, Nanosep SPE, HPLC-UV, calibration with human serum) of 1.9 mg/L and a fc ([1]; S5b, serum of patient 15 (critically ill) spiked 200 mg/L, measured c 239 mg/L, calibration with human serum) of 9.8 mg/L. For the same molecule, the fc [1, 5] was 1.8 mg/L, the fc ([1]; S5b, serum of patient 16 (critically ill) spiked 200 mg/L, measured c 233 mg/L, calibration with human serum) was 12.1 mg/L and the fc ([1]; S5b, serum of patient 17 (critically ill) spiked 50 mg/L, measured c 52.5 mg/L, calibration with human serum) was under 1.0 mg/L. It also gave a fc [1, 6] of 8.3 mg/L, a fc [1, 7] of 1.3 mg/L and a fc [1, 8] of 8.8 mg/L. The fc [1, 9] was 1.2 mg/L, the fc [1, 10] was 7.1 mg/L and the fc [1, 11] was 1.7 mg/L. The fc [1, 12] was 8.2 mg/L, the fc [1, 13] was 1.6 mg/L and the fc ([1]; S5b, serum of patient 21 (critically ill) spiked 200 mg/L, measured c 230 mg/L, calibration with human serum) was 11.0 mg/L. For the same molecule, the fc ([1]; S5b, serum of patient 22 (critically ill) spiked 50 mg/L, measured c 59.8 mg/L, calibration with human serum) was 2.5 mg/L, the fc ([1]; S5b, serum of patient 22 (critically ill) spiked 200 mg/L, measured c 266 mg/L, calibration with human serum) was 16.5 mg/L and the fc [1, 14] was 2.2 mg/L. The fc ([1]; S5b, serum of patient 23 (critically ill) spiked 200 mg/L, measured c 233 mg/L, calibration with human serum) was 9.6 mg/L, the fraction unbound [1] was 0.05 and the fraction unbound ([1]; S5a, serum of patient 1 (critically ill) spiked 50 mg/L, measured c 53.5 mg/L, calibration with sheep serum) was 0.03. The fraction unbound ([1]; S5a, serum of patient 1 (critically ill) spiked 200 mg/L, measured c 201 mg/L, calibration with sheep serum) was 0.04, the fraction unbound ([1]; S5a, serum of patient 2 (critically ill) spiked 50 mg/L, measured c 53.6 mg/L, calibration with sheep serum) was 0.03 and the fraction unbound ([1]; S5a, serum of patient 3 (critically ill) spiked 200 mg/L, measured c 209 mg/L, calibration with sheep serum) was 0.04. It also gave a fraction unbound ([1]; S5a, serum of patient 4 (critically ill) spiked 50 mg/L, measured c 54.2 mg/L, calibration with sheep serum) of 0.03, a fraction unbound ([1]; S5a, serum of patient 4 (critically ill) spiked 200 mg/L, measured c 212 mg/L, calibration with sheep serum) of 0.04 and a fraction unbound ([1]; S5a, serum of patient 5 (critically ill) spiked 50 mg/L, measured c 53.0 mg/L, calibration with sheep serum) of 0.04. The fraction unbound ([1]; S5a, serum of patient 6 (critically ill) spiked 50 mg/L, measured c 50.4 mg/L, calibration with sheep serum) was 0.03, the fraction unbound ([1]; S5a, serum of patient 8 (critically ill) spiked 50 mg/L, measured c 54.3 mg/L, calibration with sheep serum) was 0.03 and the fraction unbound ([1]; S5a, serum of patient 8 (critically ill) spiked 200 mg/L, measured c 201 mg/L, calibration with sheep serum) was 0.04. It also gave a fraction unbound ([1]; S5a, serum of patient 9 (non-critically ill) spiked 200 mg/L, measured c 177 mg/L, calibration with sheep serum) of 0.02, a fraction unbound ([1]; S5a, serum of patient 10 (non-critically ill) spiked 200 mg/L, measured c 180 mg/L, calibration with sheep serum) of 0.02 and a fraction unbound ([1]; S5a, serum of patient 11 (non-critically ill) spiked 200 mg/L, measured c 177 mg/L, calibration with sheep serum) of 0.02. For the same molecule, the fraction unbound ([1]; S5a, serum of patient 12 (non-critically ill) spiked 200 mg/L, measured c 195 mg/L, calibration with sheep serum) was 0.02, the fraction unbound ([1]; S5a, serum of patient 13 (non-critically ill) spiked 50 mg/L, measured c 53.0 mg/L, calibration with sheep serum) was 0.02 and the fraction unbound ([1]; S5a, serum of patient 13 (non-critically ill) spiked 200 mg/L, measured c 214 mg/L, calibration with sheep serum) was 0.03. It also gave a fraction unbound ([1]; S5a, serum of patient 14 (non-critically ill) spiked 50 mg/L, measured c 50.0 mg/L, calibration with sheep serum) of 0.02, a fraction unbound ([1]; S5a, serum of patient 14 (non-critically ill) spiked 200 mg/L, measured c 208 mg/L, calibration with sheep serum) of 0.02 and a fraction unbound ([1]; S5b, serum of 24 (healthy volunteer) spiked 50 mg/L, measured c 46.1 mg/L, calibration with human serum) of 0.03. The fraction unbound ([1]; S5b, serum of 24 (healthy volunteer) spiked 200 mg/L, measured c 184 mg/L, calibration with human serum) was 0.02, the fraction unbound ([1]; S5b, serum of 25 (healthy volunteer) spiked 50 mg/L, measured c 45.8 mg/L, calibration with human serum) was 0.03 and the fraction unbound ([1]; S5b, serum of 25 (healthy volunteer) spiked 200 mg/L, measured c 197 mg/L, calibration with human serum) was 0.03. For the same molecule, the fraction unbound ([1]; S5b, serum of 26 (healthy volunteer) spiked 50 mg/L, measured c 52.6 mg/L, calibration with human serum) was 0.03, the fraction unbound ([1]; S5b, serum of patient 15 (critically ill) spiked 50 mg/L, measured c 56.7 mg/L, calibration with human serum) was 0.03 and the fraction unbound [1, 5] was 0.04. For the same molecule, the fraction unbound [1, 6] was 0.04, the fraction unbound [1, 7] was 0.03 and the fraction unbound [1, 8] was 0.04. The fraction unbound [1, 9] was 0.02, the fraction unbound [1, 10] was 0.04 and the fraction unbound [1, 11] was 0.03. For the same molecule, the fraction unbound [1, 12] was 0.04, the fraction unbound [1, 13] was 0.03 and the fraction unbound [1, 14] was 0.04. For the same molecule, the “stability time (>90% of baseline concentration)” value ([2]; frozen at −80 °C) was “at least 12 months”, the “stability time (>90% of baseline concentration)” value ([2]; refrigerated (2–8 °C)) was “at least 3 months” and the elimination half-life ([3]; approximately) was over 14 days. For the same molecule, the clearance [3] was 0.05 L/h, the “stability time (>90% of baseline concentration)” value ([4]; frozen at −20 °C) was “at least 1 month” and the “stability time (>90% of baseline concentration)” value ([4]; frozen at −80 °C) was “at least 12 months”. The “stability time (>90% of baseline concentration)” value ([4]; refrigerated (2–8 °C)) was “at least 96 h” and the “stability time (>90% of baseline concentration)” value ([4]; room temperature) was at least 48 h.
